Test results: US9969688B2, “Roflumilast prodrugs” (HISAMITSU PHARMACEUTICAL CO., INC., priority 2014, dated 2018)
In brackets after ≈: the same amount, converted by molar mass.

Assays:
[1] = Evaluation test of skin permeability (Franz diffusion cell); assay type: in vitro ADME; conditions: hairless mouse skin; for Jmax (maximum skin permeation rate) / Cumulative Amount of Permeation for 24 hours: 1 w/w % in dimethyl sulfoxide, 100 μL, 32° C.
Description: Skin was excised from the back of a hairless mouse and the section of the skin was placed in a Franz diffusion cell (glass cell) so that a solution of each of test compounds (compounds of Examples, Comparative Example, or Reference Examples) was contacted with the epidermal side of the section of the skin (applied area: 1 cm^2). Phosphate buffered physiological saline (PBS) was used as a flow solution. The flow rate was set to 5 mL/hour and the temperature of thermoregulated bath was set to 32° C. Next, dimethyl sulfoxide was added to achieve the concentration of the test compound of 1 w/w % and the resultant was stirred thoroughly to prepare a solution of the test compound. The donor chamber of the Franz diffusion cell was charged with 100 μL of the resulting solution of the test compound. The flow solution was sampled every 2 hours until 24 hours after the charge of the test compound solution. The flow solutions sampled every 2 hours were diluted two-fold by adding acetonitrile and the diluted solution was centrifuged to give supernatants as an HPLC analytical sample. Each of the resulting analytical samples was analyzed by high performance liquid chromatography to calculate the maximum skin permeation rate (Jmax) and the cumulative amount of permeation for 24 hours. Roflumilast was used in Comparative Example 1.

[2] = test system: human liver enzyme fraction; assay: In vitro metabolism test (metabolic rate into roflumilast); assay type: in vitro ADME; conditions: treated with human liver enzyme fractions
Description: A human liver enzyme fraction was added to 100 mmol/L Tris-HCl buffer containing coenzymes (NADPH-producing) so as to achieve the concentration of 0.5 mg protein/mL and the resultant was pre-incubated at 37° C. for 5 minutes. A test compound was added to this solution so as to achieve the concentration of 0.1 μmol/L and the resultant was incubated at 37° C. for an hour. The reaction was then stopped by adding water-cooled acetonitrile. The resulting solution was filtered and then quantified by using LC-MS/MS to calculate the metabolic rate (%) into roflumilast. It is noted that “with heat treatment” in Table 1 means using a human liver enzyme fraction subjected to heat treatment before adding to thereby inactivate a metabolic enzyme therein.
Numerical values in Table 1 represent metabolic rates (%) into rofiumilast. […] Roflumilast was not produced when metabolic enzymes were inactivated by heat treatments prior to using the human liver enzyme fractions.

[3] = Evaluation test of water solubility (saturated solubility); assay type: physicochemical; conditions: phosphate buffer (pH 7); for solubility at 30 min: aqueous buffer, thermodynamic from solid, ultrasonicated 30 minutes
Description: An excessive amount of a test compound was added to 10 mL of phosphate buffer (pH 7) and the resultant was ultrasonicated for 30 minutes. The resulting suspension was filtered and 0.5 mL of acetonitrile was added to 0.5 mL of the filtrate to obtain a test solution. The concentration of the test compound in the test solution was determined by high performance liquid chromatography to calculate the saturated solubility. Roflumilast was used in Comparative Example 1.

| SMILES | Jmax (maximum skin permeation rate) [1] [μg/cm^2/hr] | Cumulative Amount of Permeation for 24 hours [1] [μg/cm^2] | production of roflumilast by human liver enzyme fractions (in words) [2] | solubility at 30 min [3] [µg/mL] | Ratio to Roflumilast (saturated solubility) [3] | skin permeability (in words) ([1]; up to 24 hours) |
| --- | --- | --- | --- | --- | --- | --- |
| COCN(C(=O)c1ccc(OC(F)F)c(OCC2CC2)c1)c1c(Cl)cncc1Cl [Example 6, N-(3,5-dichloropyrid-4-yl)-N-methoxymethyl-3-cyclopropylmethoxy-4-difluoromethoxybenzamide] | 1.2 | 17.6 | – | – | – | – |
| O=C(O)CN(C(=O)c1ccc(OC(F)F)c(OCC2CC2)c1)c1c(Cl)cncc1Cl [Reference Example 2, N-carboxymethyl-N-(3,5-dichloropyrid-4-yl)-3-cyclopropylmethoxy-4-difluoromethoxybenzamide, reference compound] | 9.5 | 56.9 | did not produce roflumilast | 612 (≈ 1330 µM) | 1640.2 | – |
| O=C(c1ccc(OC(F)F)c(OCC2CC2)c1)N(CCO)c1c(Cl)cncc1Cl [Example 2, N-(3,5-dichloropyrid-4-yl)-N-(2-hydroxyethyl)-3-cyclopropylmethoxy-4-difluoromethoxybenzamide] | 10.7 | 157.7 | – | 12.5 (≈ 27.9 µM) | 33.4 | – |
| O=C(c1ccc(OC(F)F)c(OCC2CC2)c1)N(CCCO)c1c(Cl)cncc1Cl [Example 5, N-(3,5-dichloropyrid-4-yl)-N-(3-hydroxypropan-1-yl)-3-cyclopropylmethoxy-4-difluoromethoxybenzamide] | 8.5 | 163.5 | – | – | – | – |
| O=C(Nc1c(Cl)cncc1Cl)c1ccc(OC(F)F)c(OCC2CC2)c1 [Comparative Example 1, N-(3,5-dichloropyrid-4-yl)-3-cyclopropylmethoxy-4-difluoromethoxybenzamide, reference compound] | 0.0 | 0.0 | – | 0.373 (≈ 0.925 µM) | 1 | no skin permeability even after 24 hours |
| NC(=O)CN(C(=O)c1ccc(OC(F)F)c(OCC2CC2)c1)c1c(Cl)cncc1Cl [Reference Example 1, N-carbamoylmethyl-N-(3,5-dichloropyrid-4-yl)-3-cyclopropylmethoxy-4-difluoromethoxybenzamide, reference compound] | 0.9 | 7.2 | did not produce roflumilast | 16.6 (≈ 36 µM) | 44.5 | – |
| N#CCN(C(=O)c1ccc(OC(F)F)c(OCC2CC2)c1)c1c(Cl)cncc1Cl [Example 1, N-cyanomethyl-N-(3,5-dichloropyrid-4-yl)-3-cyclopropylmethoxy-4-difluoromethoxybenzamide] | 1.2 | 12.1 | – | 1.64 (≈ 3.72 µM) | 4.4 | – |
| CN(C(=O)c1ccc(OC(F)F)c(OCC2CC2)c1)c1c(Cl)cncc1Cl [Example 3, N-(3,5-dichloropyrid-4-yl)-N-methyl-3-cyclopropylmethoxy-4-difluoromethoxybenzamide] | 3.2 | 51.0 | – | 9.7 (≈ 23.2 µM) | 26.0 | – |
